Measurements taken from BindingDB's records for doi:10.1021/jm9806650 (Institute of Chemical Technology, 1999).
pIC50: −log10 of the molar value.

Experiment: The compound was tested in vitro for inhibition of HIV-1 replication

| Structure (SMILES) | pIC50 |
| --- | --- |
| COc1ccc(-c2c3c4cc(OC)c(O)cc4oc(=O)c3n3ccc4cc(O)c(OC)cc4c23)cc1O [3,10-Dihydroxy-13-(3-hydroxy-4-methoxy-phenyl)-2,11-dimethoxy-5-oxa-6b-aza-dibenzo[a,i]fluoren-6-one] | 6.00 |
| COc1ccc(-c2c3c4cc(OC)c(O)cc4oc(=O)c3n3ccc4c(OC)c(OC)c(OC)cc4c23)cc1O [3-Hydroxy-13-(3-hydroxy-4-methoxy-phenyl)-2,9,10,11-tetramethoxy-5-oxa-6b-aza-dibenzo[a,i]fluoren-6-one] | 4.70 |
| COc1ccc(-c2c3n(c4c(=O)oc5cc(OS(=O)(=O)O)c(OC)cc5c24)C(O)Cc2c-3cc(OC)c(OC)c2OC)cc1O (stereo not given) [7-Hydroxy-13-(3-hydroxy-4-methoxy-phenyl)-2,9,10,11-tetramethoxy-7,8-dihydro-5-oxa-6b-aza-dibenzo[a,i]fluoren-6-one sodium sulfonate] | 4.70 |

Continued by rising pIC50, values first:

| pIC50 | Structure (SMILES) |
| --- | --- |
| 4.74 | COc1ccc(-c2c3n(c4c(=O)oc5cc(O)c(OC)cc5c24)CCc2c-3cc(OC)c(OC)c2OC)cc1O [3-Hydroxy-13-(3-hydroxy-4-methoxy-phenyl)-2,9,10,11-tetramethoxy-7,8-dihydro-5-oxa-6b-aza-dibenzo[a,i]fluoren-6-one] |
| 4.92 | COc1ccc(-c2c3n(c4c(=O)oc5cc(OS(=O)(=O)O)c(OC)cc5c24)CCc2cc(OC)c(OC)cc2-3)cc1O |
